Data published in patent US9839642B2, “Beta-tetrazolyl-propionic acids as metallo-beta-lactamase inhibitors” (priority 2014, dated 2017).
Like-named read-outs stand apart in the source and are kept apart here.

Tests used:
[1] = tested on: Escherichia coli expressing NDM-1 (CLB30016); test: Antibiotic potentiation activity: synergistic concentration (MITC95) with imipenem, growth by OD600; assay type: cell-based
Summary of the method: (§1)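 Colonies from overnight agar plates (35 °C) were suspended in saline and diluted 1:100 into 1.1× CAMHB. Inhibitor (final 200 μM to 0.195 μM) was combined with imipenem at 1 or 4 μg/ml, incubated 22–24 h at 35 °C, and absorbance read; MITC95 is the lowest inhibitor concentration giving 95% growth inhibition.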

[2] = tested on: Klebsiella pneumoniae expressing VIM-1 (IHMA599644); test: as above; assay type: cell-based
Summary of the method: as §1

[3] = tested on: Serratia marcescens expressing IMP-1 (CL5741); test: as above; assay type: cell-based
Summary of the method: as §1

IMP-1 = IMP-1 (Serratia marcescens, UniProt P52699); test: Enzyme activity: determination of IC50, fluorescence assay with CCF2-FA substrate; assay type: biochemical; conditions: CCF2-FA 1.25 μM, 2 hours at 25° C., read-out: IMP1 IC50
Summary of the method: (§2)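 Enzyme at 1 pM (NDM-1), 2 pM (IMP-1) or 30 pM (VIM-1) was incubated with inhibitor (20 μM to 0.00063 μM) and 1.25 μM CCF2-FA in 100 mM KH2PO4 pH 7, 0.005% Tween-20, 10 μM ZnSO4 for 2 hours at 25° C. Fluorescence was read at ex 405/em 460 nm; IC50 from 4-parameter fit.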

VIM-1 = VIM-1 (Pseudomonas aeruginosa, UniProt A0A0F7KYQ8); test: as above; assay type: biochemical; conditions: CCF2-FA 1.25 μM, 2 hours at 25° C., read-out: VIM1 IC50
Summary of the method: as §2

NDM-1 = NDM-1 (Klebsiella pneumoniae, UniProt C7C422); test: as above; assay type: biochemical; conditions: CCF2-FA 1.25 μM, 2 hours at 25° C., read-out: NDM1 IC50
Summary of the method: as §2

[4] = 95% inhibition of bacterial growth, strain CLB30016
[5] = 95% inhibition of bacterial growth, strain IHMA599644
[6] = 95% inhibition of bacterial growth, strain CL5741
[7] = E. coli CLB30016 (NDM-1), 95% inhibition of growth
[8] = K. pneumoniae IHMA599644 (VIM-1), 95% inhibition of growth
[9] = S. marcescens CL5741 (IMP-1), 95% inhibition of growth

Chain of NDM-1 (C7C422 29-270, looked up, species assumed): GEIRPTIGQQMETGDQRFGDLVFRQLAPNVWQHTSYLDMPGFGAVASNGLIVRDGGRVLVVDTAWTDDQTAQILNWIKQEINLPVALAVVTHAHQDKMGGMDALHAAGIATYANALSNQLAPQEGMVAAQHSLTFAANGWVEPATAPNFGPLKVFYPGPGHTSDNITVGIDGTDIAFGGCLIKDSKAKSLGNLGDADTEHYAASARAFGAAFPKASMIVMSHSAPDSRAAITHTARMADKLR
Chain of IMP-1 (P52699 19-246, looked up, species assumed): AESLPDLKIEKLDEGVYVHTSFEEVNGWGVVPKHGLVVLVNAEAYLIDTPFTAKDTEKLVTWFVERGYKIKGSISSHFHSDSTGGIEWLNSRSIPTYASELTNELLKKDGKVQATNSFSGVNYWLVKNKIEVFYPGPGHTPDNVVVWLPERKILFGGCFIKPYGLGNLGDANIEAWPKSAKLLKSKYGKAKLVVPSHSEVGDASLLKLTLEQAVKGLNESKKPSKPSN

Row | SMILES | NDM1 EC30016 MITC95 [1, 4] [µM] | VIM1 KP599644 MITC95 [2, 5] [µM] | IMP1 SM5741 MITC95 [3, 6] [µM] | IC50 (IMP-1; enzyme 2 pM) [nM] | IC50 (VIM-1; enzyme 30 pM) [nM] | IC50 (NDM-1; enzyme 1 pM) [nM] | NDM1 EC30016 MITC95 [1, 7] [µM] | VIM1 KP599644 MITC95 [2, 8] [µM] | IMP1 SM5741 MITC95 [3, 9] [µM] | IC50 (IMP-1; IMP-1 enzyme 2 pM) [nM] | IC50 (VIM-1; VIM-1 enzyme 30 pM) [nM] | IC50 (NDM-1; NDM-1 enzyme 1 pM) [nM]
1 | CCC[C@H](C(=O)O)[C@H](Cc1ccc(NCCn2ccnn2)cc1)c1nn[nH]n1 [Example 221, (2S)-2-[(1S)-1-(2H-tetrazol-5-yl)-2-(4-{[2-(1H-1,2,3-triazol-1-yl)ethyl]amino}phenyl)ethyl]pentanoic acid] | 31 | 100 | 16 | 220 | 27 | 84 |  |  |  |  |  | 
2 | CCC[C@H](C(=O)O)[C@H](Cc1ccc(NC(C)CN)cc1)c1nn[nH]n1 (stereo partly drawn) [Example 222, (2S)-2-[(1S)-2-{4-[(2-amino-1-methylethyl)amino]phenyl}-1-(2H-tetrazol-5-yl)ethyl]pentanoic acid] | 18.8 | 25 | 25 | 1700 | 9.1 | 710 |  |  |  |  |  | 
3 | CCC[C@H](C(=O)O)[C@H](Cc1ccc(NC2CCCN(CCC)C2)cc1)c1nn[nH]n1 (stereo partly drawn) [Example 223, (2S)-2-[(1S)-2-{4-[(1-propylpiperidin-3-yl)amino]phenyl}-1-(2H-tetrazol-5-yl)ethyl]pentanoic acid] | 38 | 75 | 25 | 1300 | 71 | 500 |  |  |  |  |  | 
4 | CCC[C@H](C(=O)O)[C@H](Cc1ccc(NC(C)CN(C)C)cc1)c1nn[nH]n1 (stereo partly drawn) [Example 224, (2S)-2-[(1S)-2-(4-{[2-(dimethylamino)-1-methylethyl]amino}phenyl)-1-(2H-tetrazol-5-yl)ethyl]pentanoic acid] | 25 | 50 | 18.8 | 1100 | 82 | 1000 |  |  |  |  |  | 
5 | CCC[C@H](C(=O)O)[C@H](Cc1ccc(N2CCN(CCO)CC2)cc1)c1nn[nH]n1 [Example 225, (2S)-2-[(1S)-2-{4-[4-(2-hydroxyethyl)piperazin-1-yl]phenyl}-1-(2H-tetrazol-5-yl)ethyl]pentanoic acid] | 25 | 50 | 12.5 | 280 | 66 | 110 |  |  |  |  |  | 
6 | CCC[C@H](C(=O)O)[C@H](Cc1ccc(N2CCN(c3ccccc3)CC2)cc1)c1nn[nH]n1 [Example 226, (2S)-2-[(1S)-2-[4-(4-phenylpiperazin-1-yl)phenyl]-1-(2H-tetrazol-5-yl)ethyl]pentanoic acid] | 38 | >200 | 3.1 | 39 | 66 | 20 |  |  |  |  |  | 
7 | CCC[C@H](C(=O)O)[C@H](Cc1ccc(N2CCN(c3ccncc3)CC2)cc1)c1nn[nH]n1 [Example 227, (2S)-2-[(1S)-2-[4-(4-pyridin-4-ylpiperazin-1-yl)phenyl]-1-(2H-tetrazol-5-yl)ethyl]pentanoic acid] | 16 | 75 | 12.5 | 380 | 51 | 54 |  |  |  |  |  | 
8 | CCC[C@H](C(=O)O)[C@H](Cc1ccc(N2CCN(C(C)=O)CC2)cc1)c1nn[nH]n1 [Example 228, (2S)-2-[(1S)-2-[4-(4-acetylpiperazin-1-yl)phenyl]-1-(2H-tetrazol-5-yl)ethyl]pentanoic acid] | 75 | 200 | 16 | 220 | 15 | 33 |  |  |  |  |  | 
9 | CCC[C@H](C(=O)O)[C@H](Cc1ccc(N2CCC[C@@H](N)C2)cc1)c1nn[nH]n1 [Example 229, (2S)-2-[(1S)-2-{4-[(3R)-3-aminopiperidin-1-yl]phenyl}-1-(2H-tetrazol-5-yl)ethyl]pentanoic acid] | 12.5 | 25 | 25 | 1200 | 25 | 370 |  |  |  |  |  | 
10 | CCC[C@H](C(=O)O)[C@H](Cc1ccc(N2CCC[C@H](N)C2)cc1)c1nn[nH]n1 [Example 230, (2S)-2-[(1S)-2-{4-[(3S)-3-aminopiperidin-1-yl]phenyl}-1-(2H-tetrazol-5-yl)ethyl]pentanoic acid] | 31 | 25 | 25 | 1100 | 25 | 300 |  |  |  |  |  | 
11 | CCC[C@H](C(=O)O)[C@H](Cc1ccc(N2CCN(C)CC2)cc1)c1nn[nH]n1 [Example 231, (2S)-2-[(1S)-2-[4-(4-methylpiperazin-1-yl)phenyl]-1-(2H-tetrazol-5-yl)ethyl]pentanoic acid] | 18.8 | 50 | 18.8 | 450 | 69 | 160 |  |  |  |  |  | 
12 | CCC[C@H](C(=O)O)[C@H](Cc1ccc(N2CCN3CCCC3C2)cc1)c1nn[nH]n1 (stereo partly drawn) [Example 232, (2S)-2-[(1S)-2-[4-(hexahydropyrrolo[1,2-a]pyrazin-2(1H)-yl)phenyl]-1-(2H-tetrazol-5-yl)ethyl]pentanoic acid] | 12.5 | 50 | 12.5 | 420 | 90 | 180 |  |  |  |  |  | 
13 | CC(C)(C)[C@H](C(=O)O)[C@H](Cc1ccccc1)c1nnn[nH]1 [Example 258, (2R,3S)-2-(tert-butyl)-4-phenyl-3-(1H-tetrazol-5-yl)butanoic acid] |  |  |  |  |  |  | 11 | 100 | 2.3 | 35 | 100 | 91
14 | CCC[C@H](C(=O)O)[C@H](Cc1ccccc1F)c1nnn[nH]1 [Example 259, (S)-2-((S)-2-(2-fluorophenyl)-1-(1H-tetrazol-5-yl)ethyl)pentanoic acid] |  |  |  |  |  |  | 9.4 | 12.5 | 12.5 | 930 | 4.2 | 37
15 | CCC[C@H](C(=O)O)[C@H](Cc1cccc(F)c1)c1nnn[nH]1 [Example 260, (2S)-2-[(1S)-2-(3-fluorophenyl)-1-(1H-tetrazol-5-yl)ethyl]pentanoic acid] |  |  |  |  |  |  | 6.2 | 18.8 | 12.5 | 870 | 3.7 | 75
16 | CCC[C@H](C(=O)O)[C@H](Cc1ccc(F)cc1)c1nnn[nH]1 [Example 261, (2S)-2-[(1S)-2-(4-fluorophenyl)-1-(1H-tetrazol-5-yl)ethyl]pentanoic acid] |  |  |  |  |  |  | 9.4 | 12.5 | 12.5 | 910 | 3.8 | 110
17 | CCC[C@H](C(=O)O)[C@H](Cc1ccc(F)cc1F)c1nnn[nH]1 [Example 262, (2S)-2-[(1S)-2-(2,4-difluorophenyl)-1-(1H-tetrazol-5-yl)ethyl]pentanoic acid] |  |  |  |  |  |  | 6.2 | 12.5 | 18.8 | 1300 | 3.1 | 70
18 | CCC[C@H](C(=O)O)[C@H](Cc1ccc(Cl)cc1)c1nnn[nH]1 [Example 263, (2S)-2-[(1S)-2-(4-chlorophenyl)-1-(1H-tetrazol-5-yl)ethyl]pentanoic acid] |  |  |  |  |  |  | 9.4 | 9.4 | 12.5 | 430 | 2.4 | 57
19 | CCC[C@H](C(=O)O)[C@H](Cc1cccnc1)c1nnn[nH]1 [Example 264, (S)-2-((S)-2-(pyridin-3-yl)-1-(1H-tetrazol-5-yl)ethyl)pentanoic acid] |  |  |  |  |  |  | 2.3 | 18.8 | 100 | 7100 | 16 | 370
20 | CCC[C@H](C(=O)O)[C@H](C[C@@H](C)c1ccccc1)c1nnn[nH]1 [Example 265, (2S,3S,5R)-5-phenyl-2-propyl-3-(1H-tetrazol-5-yl)hexanoic acid] |  |  |  |  |  |  | 18.8 | 75 | 50 | 1800 | 24 | 130
